Entries after “also recorded” stand apart in the source; their conditions may differ.
Columns and labels:
apoBNOX = assay: superoxide dismutase-resistant apoBNOX activity by ferricytochrome c reduction; type: biochemical; settings: for inhibition of apoBNOX: apoBNOX associated with lipoprotein particles
Experimental: Reduction of ferricytochrome c by superoxide was employed as the measure of superoxide dismutase-resistant apoBNOX activity (Mayo, L. A. and Curnutte, J., 1990, Meth. Enzyme. 186: 567-575; Butler, J. et al., 1982, J. Biol. Chem. 257: 10747-10750). The assay consists of 150 μl buffy coats in PBSG buffer (8.06 g NaCl, 0.2 g KCl, 0.18 g Na2HPO4, 0.13 g CaCl2, 0.1 MgCl2, 1.35 g glucose dissolved in 1000 ml deionized water, adjusted to pH 7.4, filtered and stored at 4° C.). Rates were determined using an SLM Aminco DW-2000 spectrophotometer (Milton Roy, Rochester, N.Y.) in the dual wave length mode of operation with continuous measurements over 1 min every 1.5 min. After 45 min, test compounds were added and the reaction was continued for an additional 45 min. After 45 min, a millimolar extinction coefficient of […] was used for reduced ferricytochrome c.
arNOX activity was assayed from measurements of superoxide production based on a standard method where reduction of ferricytochrome c was monitored from the increase in absorbance at 550 nm with reference at 540 nm (Butler et al., 1982). As a further check for the specificity of the apoBNOX activity, 60 units of superoxide dismutase (SOD) were added near the end of the assay to ascertain that the rate returned to base line. Rates were determined over 1 min at intervals of 1.5 min using a SLM Aminco DW 2000 spectrophotometer (Milton Roy, Rochester, N.Y.) in the dual wavelength mode of operation. An extinction coefficient of 19.1 mM^−1 cm^−1 was used for reduced ferricytochrome c.

arNOX = settings: cited from earlier work
recombinant arNOX SF2 = molecular target: T1, recombinant arNOX SF2 (Homo sapiens, UniProt Q99805, F637E); assay: Lipid oxidation catalyzed by H2O2 formed from recombinant arNOX-generated superoxide (SF2); type: biochemical; settings: SF2 + lecithin + SOD + inhibitor, incubated 2 h; without inhibitor 0.12, without SOD 0.06
T1 construct: made in house; host or cells: Escherichia coli BL21 (DE3), pET11a
Description: FIG. 4 illustrates the role of apoBNOX in the oxidation of the apoB protein associated with low density lipoprotein particles and the recognition of the oxidized LDL by macrophages, resulting in the formation of foam cells leading to fatty streaks and atherogenic plaques. In this scheme, the apoBNOX binds selectively to lipoprotein particle-associated apoB and withdraws electrons to form superoxide. The superoxide thus generated is converted to hydrogen peroxide by the action of superoxide dismutase. The hydrogen peroxide thus generated attacks lipids (particularly phosphatidylcholine) of the low density lipoprotein particles to form reactive lipid peroxides that then attack key lysine residues in the apoB. Evidence that superoxide generated by arNOX when converted to hydrogen peroxide is capable of oxidizing phosphatidylcholine is given by the data of Table 2.

[1] = Hydrophilicity / solubility; type: physicochemical
Description: (§1) This last characteristic might be problematic if hydroxytyrosol or tyrosol are pretended to be used in fat-based food products or supplements. Oxidation of hydroxytyrosol and tyrosol clearly affect the stability and preservation of both compounds. The hydroxytyrosol and tyrosol derivatives presented in this invention avoid these two problems. The hydroxyl groups on these derivatives are protected from oxidation by preparing hydroxytyrosol or tyrosol fatty acid esters. When compared to hydroxytyrosol and tyrosol, the hydroxytyrosol and tyrosol fatty acid esters are much more resistant against oxidation. At the same time, depending on the length of the fatty acid chain of the fatty acid esters, their solubility in fat-based food products will be increased. Hydroxytyrosol or tyrosol esters with a wide range of solubilities can be prepared, from totally water-soluble hydroxytyrosol or tyrosol derivatives when acetic acid is used in the formation of the ester to totally oil-soluble hydroxytyrosol or tyrosol derivatives when oleic acid is used in the formation of the ester. The hydroxytyrosol and tyrosol derivatives are hydrolyse in the intestinal tract of rats to their two components, hydroxytyrosol or tyrosol and the fatty acid. […] This implies that, after their hydrolysis, mentioned fatty acid esters can act as antioxidants to reduce or ameliorate diseases with an oxidative stress origin.

[2] = Hydrolysis and absorption in rats; type: in vivo
Description: as §1

Sensitivity to oxidation = type: physicochemical
Description: as §1

Compound	inhibition of apoBNOX (apoBNOX)	inhibition of arNOX activity of aging cells (arNOX)	further results
COC1=C(OC)C(=O)C(C/C=C(\C)CC/C=C(\C)CC/C=C(\C)CC/C=C(\C)CC/C=C(\C)CC/C=C(\C)CC/C=C(\C)CCC=C(C)C)=C(C)C1=O [CoQ8]	relatively ineffective	inhibited	–
OCCc1ccc(O)c(O)c1 [Hydroxytyrosol, hydroxytyrosol]	–	–	hydrophilicity / solubility [1]: hydrophilic; absorption ([2]; rats, after hydrolysis of the esters, detected in plasma and cerebrospinal fluid): rapidly absorbed
OCCc1ccc(O)cc1 [Tyrosol, 4-hydroxyphenethyl alcohol]	–	–	apoBNOX activity, % inhibition (apoBNOX; 100 μM tyrosol): 70%; sensitivity to oxidation (Sensitivity to oxidation): sensitive to oxidation; hydrophilicity / solubility [1]: hydrophilic; absorption ([2]; rat, in vivo): rapidly absorbed
O=c1cc(-c2ccc(O)cc2)oc2cc(O)cc(O)c12 [apigenin]	resist inhibition	–	–
superoxide dismutase	resist inhibition; also recorded: resistant to inhibition	–	–

More lines, main results first:

inhibition of apoBNOX (apoBNOX)	Compound	inhibition of arNOX activity of aging cells (arNOX)	further results
relatively ineffective	COC1=C(OC)C(=O)C(C/C=C(\C)CC/C=C(\C)CC/C=C(\C)CC/C=C(\C)CC/C=C(\C)CC/C=C(\C)CC/C=C(\C)CC/C=C(\C)CCC=C(C)C)=C(C)C1=O [CoQ9]	inhibited	–
resist inhibition	COC1=C(OC)C(=O)C(C/C=C(\C)CC/C=C(\C)CC/C=C(\C)CC/C=C(\C)CC/C=C(\C)CC/C=C(\C)CC/C=C(\C)CC/C=C(\C)CC/C=C(\C)CCC=C(C)C)=C(C)C1=O [CoQ, coenzyme Q10]	inhibited	inhibition of apoBNOX (apoBNOX; listed as CoQ10): relatively ineffective; Lipid oxidation, Relative units (recombinant arNOX SF2): 0.06 cm
